US20230303544A1, “LMO2 PROTEIN INHIBITORS” (UNIVERSITY OF OXFORD, priority 2020, published 2023)
pIC50: −log10 of the molar value. Entries after “also recorded” stand apart in the source; their conditions may differ.

Tests used:
[1] = Parallel artificial membrane permeability assay (PAMPA); type: in vitro ADME; settings: 10 μM donor, pH 5, 6.5 and 7.4, 16 hours, 30° C.
Procedure: The parallel artificial membrane permeability assay (PAMPA) was used to determine compound permeability by passive diffusion. The assay used an artificial membrane consisting of 2% phosphatidyl choline in dodecane (Sigma Aldrich, Dorset, UK). The donor plate was a MultiScreen-IP Plate with 0.45 μm hydrophobe Immobilon-P Membrane (Millipore, UK) and the acceptor plate was a MultiScreen 96-well Transport Receiver Plate (Millipore, UK). The permeability was measured at 3 different pH levels: pH 5, 6.5 and pH 7.4 in buffer containing 1% Bovine Serum Albumin (Sigma Aldrich, Dorset, UK). A 10 mM DMSO stock solution of test compound was used to prepare the 10 μM PAMPA donor solutions and calibration curves in each of the three buffers.
6 μL of the membrane solution was added to each well of the donor plate. Buffer donor solutions (200 μL) were added to the appropriate wells of the PAMPA donor plate. 300 µL per well of blank PBS (pH 7.4) was added to the PAMPA acceptor plate.
The donor and acceptor plates were then sandwiched together, covered with a lid and incubated at 30° C. in a humid environment for 16 hours. After the incubation period the plates were removed from the incubator and the sandwich was dismantled. […] All sample supernatants were diluted and analysed using a Waters (Milford, MA, US) TQ-S LC-MS/MS system.
Permeability values (cm/s) were calculated using the following equation: […]

[2] = system: Caco-2 human colon carcinoma cell line; experiment: Caco-2 permeability assay; type: in vitro ADME; settings: 10 μM, 2 hours, 37° C.
Procedure: Caco-2 apparent permeability (Papp) was determined in the Caco-2 human colon carcinoma cell line as described (Bavetsias et al., 2016). Cells were maintained (DMEM with 10% fetal bovine serum, penicillin, and streptomycin) in a humidified atmosphere with 5% CO2/95% air for 10 days. Cells were plated out onto a cell culture assembly plate (Millipore, UK), and monolayer confluency was checked using a TEER electrode prior to the assay. Media was washed off and replaced with HBSS buffer (pH7.4) containing compound (10 μM, 1% DMSO) in the appropriate apical and basal donor wells. HBSS buffer alone was placed in acceptor wells. In particular instances a specific P-gp inhibitor, LY335979 (5 μM), was added to the HBSS. The Caco-2 plate was incubated for 2 hours at 37° C. Samples from the apical and basolateral chambers were analysed using a Waters (Milford, MA, US) TQ-S LC-MS/MS system. The cell permeability properties of Abd-L compounds was compared to low (nadolol) and high (antipyrine) permeability compounds and a compound with high export (indinavir).
Apparent permeability (Papp) was determined as follows: […]

LMO2-ΔLID = molecular target: T1, LMO2-ΔLID (Homo sapiens, UniProt P25791); experiment: WaterLOGSY NMR binding to LMO2-ΔLID; settings: RT
T1 construct: UniProt P25791; residues 26-156; hexa-histidine tag (N, cleaved yes); SUMO (N, cleaved yes); made in house; host or cells: E. coli Lemo21(DE3)
T1 sequence (P25791 with tags, fused parts or gaps): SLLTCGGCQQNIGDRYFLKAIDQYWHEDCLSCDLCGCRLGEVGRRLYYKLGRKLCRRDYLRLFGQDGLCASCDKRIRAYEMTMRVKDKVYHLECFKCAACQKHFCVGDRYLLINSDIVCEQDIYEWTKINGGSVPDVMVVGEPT
Procedure: (§1) WaterLOGSY NMR method was used to measure LMO2 ligand interaction (Bataille et al., 2020). WaterLOGSY experiments were conducted at a ^1H frequency of 600 MHz using a Bruker Avance spectrometer equipped with a BBI probe. All experiments were conducted at RT. 3 mm diameter NMR tubes with a sample volume of 200 μL were used for all experiments. For LMO2-LID, solutions were buffered using a 10 mM NaPO4, 250 mM NaCl solution. For LMO2-ΔLID, solutions were buffered using a 10 mM NaPO4, 50 mM NaCl solution. The sample preparation for measuring ligand binding with LMO2-LID is exemplified as follows; the compound (10 μL of a 10 mM solution in DMSO-d6) was added to an Eppendorf tube before sequential addition of the appropriate buffer (90 μL), D2O (20 μL), and the protein (80 μL, 25 μM). The resulting solution was vortexed to mix and transferred to a 3 mm NMR tube prior to the NMR analysis. The sample preparation for measuring ligand binding with LMO2-ΔLID is exemplified as follows; the compound (10 μL of a 10 mM solution in DMSO-d6) was added to an Eppendorf tube before sequential addition of the appropriate buffer (162 μL), D2O (20 μL), and the protein (8 μL, 250 μM). The resulting solution was vortexed to mix and transferred to a 3 mm NMR tube prior to the NMR analysis. […]

LMO2-LID = molecular target: T2, LMO2-LID (Homo sapiens, UniProt P25791); experiment: WaterLOGSY NMR binding to LMO2-LID; settings: RT
T2 construct: made in house; host or cells: E. coli BL21(DE3)-Rosetta2 pLysS
T2 sequence (P25791 26-156 limits assumed): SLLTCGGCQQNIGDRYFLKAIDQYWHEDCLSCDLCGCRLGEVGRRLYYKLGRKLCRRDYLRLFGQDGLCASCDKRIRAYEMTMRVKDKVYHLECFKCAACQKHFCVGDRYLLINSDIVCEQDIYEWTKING
T2 sequence (Q86U70 336-375 partner limits assumed): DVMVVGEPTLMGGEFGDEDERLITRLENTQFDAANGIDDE
Procedure: as §1

[3] = molecular target: T3, LMO2-iDAb LMO2dm3 interaction (Homo sapiens, UniProt P25791); experiment: LMO2-iDAb LMO2dm3 BRET assay; type: cell-based; settings: 22 h; for pIC50: BRET dose response, HEK293T cells, 0.01-50 μM
T3 construct: LMO2 cDNA was cloned into the pEF-RLuc8-MCS and pEF-MCS-RLuc8 plasmids; expressed in transfected cells; host or cells: HEK293T
T3 sequence (P25791 1-158): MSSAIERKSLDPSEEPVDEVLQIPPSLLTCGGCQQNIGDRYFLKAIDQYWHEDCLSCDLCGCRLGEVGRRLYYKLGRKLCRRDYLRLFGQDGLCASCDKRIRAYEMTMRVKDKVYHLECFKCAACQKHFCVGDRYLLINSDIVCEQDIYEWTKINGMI
Procedure: (§2) For all BRET experiments (titration curves and competition assays) 650,000 HEK293T were seeded in each well of a 6 well plates. After 24 hours at 37° C., cells were transfected with a total of 1.6 μg of DNA mix, containing the donor+acceptor±competitor plasmids, using Lipofectamine 2000 transfection reagent (Thermo-Fisher). In dose response competition experiments, competitors were transfected with the following amount of DNA: 0.1; 0.5 and 1 μg. In single dose competition experiments, competitors were transfected with […] of DNA. Cells were detached 24 hours later, washed with PBS and seeded in a white 96-well plate (clear bottom, PerkinElmer, Cat #6005181) in OptiMEM no phenol red medium complemented with 4% FBS and cells were incubated for an additional 20-24 hours at 37° C. before the BRET assay reading. A detailed BRET protocol is provided by Bery and Rabbitts, (2019).
Compounds were prepared in 100% DMSO at 10 mM. For BRET competition assays, cells were treated with the indicated compounds at concentration of 1 (or 5), 10 and 20 μM for 22 h. For BRET-based dose response experiments, cells were treated with compounds at concentration of 0.01, 0.1, 1, 4, 10, 25 and 50 μM for 22 h. The compounds were diluted in the BRET medium: OptiMEM no phenol red (Life Technologies) supplemented with 4% FBS and with a final concentration of 0.2% DMSO.
(§3) BRET2 signal was determined immediately after injection of coelenterazine 400a substrate (10 μM final) to cells (Cayman Chemicals), using a CLARIOstar instrument (BMG Labtech) with a luminescence module. Total GFP^2 fluorescence was detected with excitation and emission peaks set at 405 nm and 515 nm respectively. Total RLuc8 luminescence was measured with the Luminescence 400-700 nm-wavelength filter.
The BRET signal or BRET ratio corresponds to the light emitted by the GFP^2 acceptor constructs (515 nm±30) upon addition of coelenterazine 400a divided by the light emitted by the RLuc8 donor constructs (410 nm±80). The background signal is subtracted from that BRET ratio using the donor-only negative control where only the RLuc8 fusion plasmid is transfected into the cells. The normalized BRET ratio is the BRET ratio normalized to a negative control (iDAb control or DMSO control) during a competition assay. Total GFP^2 and RLuc8 signals were used to control the protein expression from each plasmid.

[4] = molecular target: T4, LMO2-iDAb LMO2 (unmutated iDAb) interaction (Homo sapiens, UniProt P25791); experiment: LMO2-iDAb LMO2 (unmutated iDAb) BRET assay; type: cell-based; settings: BRET dose response
T4 construct: LMO2 cDNA was cloned into the pEF-RLuc8-MCS and pEF-MCS-RLuc8 plasmids; expressed in transfected cells; host or cells: HEK293T
T4 sequence (P25791 1-158): T3 sequence (P25791 1-158)
Procedure: as §2
Compounds were prepared in 100% DMSO at 10 mM. […]
as §3, with “filter. […]” for “filter.”

scFv-LMO2 = molecular target: T5, scFv-LMO2 (Homo sapiens, UniProt P25791); experiment: Photoaffinity labelling (PAL) pulldown; type: binding; settings: 20 μM Abd-L26, UV light, avidin beads
T5 construct: made in house; host or cells: E. coli C41 (DE3)
T5 sequence (P25791 1-158): T3 sequence (P25791 1-158)
Procedure: 20 μM of Abd-L26 with or without 100 μM of Abd-L9 (competitor) are added in a final volume of 400 μL of PBS with 40 μg of purified protein of interest (scFv-LMO2). The same samples are prepared for the no UV controls. The samples are incubated for 25 minutes at RT. The samples to be crosslinked are put into ice and under the UV lamp for crosslinking for 1 hour. The no UV controls are kept on ice. During the 1 hour of crosslinking, the agarose monomeric avidin beads (Cat #20228, Thermofisher) are washed twice with PBS. After the crosslink, 20 μL of washed beads are added in all the samples (crosslinked and non-crosslinked) and incubated for 2 hours at 4° C. on a roller. 2 hours later, wash the beads three times with 400 μL of PBS. The samples are finally denatured with 50 μL of 2× loading buffer with BME added directly on the beads (and boiled at 100° C. for 5 minutes) and loaded for a western blot analysis.

Row | binding to LMO2-LID by waterLOGSY NMR (LMO2-LID) | pIC50 [3] | SMILES | binding to LMO2-ΔLID by waterLOGSY NMR (LMO2-ΔLID) | other results
1 | not | 5.82 | COc1cccc(CN2CCN(c3nc(C(=O)Nc4ccc(OCc5ccccc5)cc4)co3)C2=O)c1 [Abd-L9, N-(4-(benzyloxy)phenyl)-2-(3-(3-methoxybenzyl)-2-oxoimidazolidin-1-yl)oxazole-4-carboxamide] | bind and showed binding and Direct binding | PAMPA permeability (in words) [1]: best properties; Caco-2 cell permeability (in words) [2]: low transport; Caco-2 efflux (in words) [2]: low efflux ratio; inhibition of LMO2-iDAb LMO2dm3 interaction (in words) ([3]; BRET competition, Abd concentration 1 (or 5), 10, 20 μM): most potent inhibitor
2 | not | – | O=C(NCc1ccc(Oc2ccccc2)cc1)c1coc(N2CCN(Cc3ccccc3)C2=O)n1 [Abd-L13, 2-(3-benzyl-2-oxoimidazolidin-1-yl)-N-(4-phenoxybenzyl)oxazole-4-carboxamide] | bind and showed binding and Direct binding | –
3 | – | 5.17 | COc1cccc(CN2CCN(c3nc(C(=O)Nc4ccc(OC)nc4)cs3)CC2)c1 [Abd-L22, 2-(4-(3-methoxybenzyl)piperazin-1-yl)-N-(6-methoxypyridin-3-yl)thiazole-4-carboxamide] | – | concentration at which LMO2-iDAb LMO2 interaction is inhibited [4]: above 25 μM
4 | – | – | O=C(CCCC[C@H]1SC[C@H]2NC(=O)N[C@H]21)NCCOCCOCC(=O)Nc1ccc(NC(=O)c2coc(N3CCN(Cc4ccc(C(=O)c5ccccc5)cc4)CC3)n2)cc1 [Abd-L26, 2-(4-(4-benzoylbenzyl)piperazin-1-yl)-N-(4-(2-(2-(2-(5-((3aR,4R,6aS)-2-oxohexahydro-1H-thieno[3,4-d]imidazol-4-yl)pentanamido)ethoxy)ethoxy)acetamido)phenyl)oxazole-4-carboxamide] | – | photo-crosslinking to LMO2 protein (pulldown, Western blot) (scFv-LMO2): observed a biotin labelled protein; also recorded: confirmed binding to LMO2 protein
